Measured values reported in article PMC6828666, “Discovery of holoenzyme-disrupting chemicals as substrate-selective CK2 inhibitors” (Scientific Reports, 2019).

Legend:
CK2 = target: T1, CK2 (Homo sapiens, UniProt P68400); test: CK2 kinase assay with CK2β-independent peptide substrate […]; assay type: biochemical
T1 construct: made in house; host or cells: Escherichia coli (CK2α)
Experimental: The following peptide substrates were employed: a canonical CK2 peptide substrate […] phosphorylated equally by CK2α and CK2α2β2 (CK2β-independent peptide substrate), and […] exclusively phosphorylated by CK2α2β2 (CK2β-dependent peptide substrate)[4]. GST-Olig2-(1-177), was used as a CK2β-dependent protein substrate.
CK2 kinase assays were performed in a final assay volume of 18 μL containing 3 μL of compounds, 3 μL of CK2α (36 ng) and a mixture of 1 mM peptide substrate, 10 mM MgCl2, and 1 μCi [γ^32P]-ATP. Final concentration of ATP was 100 μM. Assays were performed under linear kinetic conditions for 5 min at room temperature before termination by the addition of 60 μL of 4% TCA. ^32P incorporation in peptide substrate was determined as previously described.
Fig. S6. […] (a) Dose-dependent inhibition of CK2. CK2α (40 nM) was incubated with increasing concentrations of compound 1 (●), 4 (π) or 6 (○) in the presence of 20 nM CK2β. CK2 activity was determined with a saturating concentration of CK2β-dependent peptide substrate. (b) Differential effects of 6 on the phosphorylation of CK2 peptide substrates. CK2α (40 nM) was incubated with increasing concentrations of 6 in the presence of 20 nM CK2β. CK2 activity was determined with a saturating concentration of CK2β-independent peptide substrate (?) or CK2β-dependent peptide substrate (○). […]

MCF10A cells = test: Scratch wound cell migration assay; assay type: cell-based, human; settings: 40 μM
Experimental: Cells seeded at equal density were allowed to grow to confluence overnight. The Essen Bioscience WoundMaker^TM, an accessory for the IncuCyte Zoom®, was utilized to create Scratch-wounds of a standardized width (~600 μm). Cells were treated with the indicated inhibitors and imaged every 15 min for 44 h and the percentage of wound confluence was analyzed.
Fig. S10. […] MCF10A cells (a) or MDA-MB231 cells (b) were allowed to grow to confluence overnight. Wounds of a standardized width were created using the Essen Bioscience WoundMakerTM. […] Wound closure was monitored using the Essen IncuCyte Zoom live-cell microscopy incubator. Images were captured every 2 h for the duration of the experiment. Error bars represent the SEM of two biological replicates derived from technical triplicates.

CK2α = CK2α (Homo sapiens, UniProt P68400); test: SPR binding studies on captured GST-CK2α; settings: surface plasmon resonance
Sequence of CK2α (P68400 whole entry): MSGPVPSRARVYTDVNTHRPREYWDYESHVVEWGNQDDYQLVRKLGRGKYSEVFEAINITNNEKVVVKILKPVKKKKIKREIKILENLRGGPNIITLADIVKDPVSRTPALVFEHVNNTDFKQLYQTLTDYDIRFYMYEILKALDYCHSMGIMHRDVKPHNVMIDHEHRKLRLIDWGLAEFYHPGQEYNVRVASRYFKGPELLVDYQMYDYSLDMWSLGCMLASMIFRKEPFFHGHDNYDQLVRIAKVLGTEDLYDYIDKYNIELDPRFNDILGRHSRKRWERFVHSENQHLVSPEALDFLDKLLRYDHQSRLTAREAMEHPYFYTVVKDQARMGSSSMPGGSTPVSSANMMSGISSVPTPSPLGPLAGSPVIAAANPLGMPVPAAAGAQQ
Experimental: SPR competition studies (Fig. 2i) were performed using a BIAcore 3000 instrument (BIAcore AB) equipped with a CM5 sensor chip (BIAcore AB). After activation with a solution of N-hydroxysuccinimide and N-ethyl-N-(dimethylaminopropyl)carbodiimide hydrochloride (coupling solution BIAcore AB), the anti-GST antibody diluted at 30 μg/ml in 10 mM acetate buffer pH 5.0 was injected at a flow rate of 5 μL/min for 7 min. All the surfaces were blocked with a 3 min injection at 10 μL/min of 1 M ethanolamine, pH 8.0. GST-CK2α (50 μg/ml) was immobilized on the surface at a flow rate of 5 μL/min in HBS (10 mM Hepes pH 7.3, 0.15 M NaCl, 3 mM EDTA, 0.005% polysorbate 20). MBP-CK2β diluted at 50 μg/ml in HBS buffer was injected over the surface at a flow rate of 5 μL/min in presence of various compound 1 concentration. Regeneration of the surfaces was achieved by injection of 10 mM glycine-HCl pH 2.2. SPR binding studies (Supplementary Fig. S7) were performed using a Reichert SR7000DC instrument optical biosensor (Reichert Technologies) equipped with a CMD500m sensor chip obtained from XanTec Bioanalytics. CK2α was immobilized by a capturing approach using a monoclonal anti-GST antibody (27 kDa, Clone GST-R 6G9 produced in rat, SAB4200055 Sigma Aldrich). Prior to use, the anti-GST antibodies were purified twice by micro dialysis at 4 °C (Membrane: dialysis tubing benzoylated, 9 mm, D2272-5FT) in 10 mM sodium acetate, pH = 5. Anti-GST antibodies were immobilized using amine-coupling chemistry at 12 °C. The surfaces of all two flow cells were activated for 7 min with a 1:1 mixture of 0.1 M NHS (N-hydroxysuccinimide) and 0.1 M EDC (3-(N,N-dimethylamino) propyl-N-ethylcarbodiimide) at a flow rate of 10 μL/min. The antibody at a concentration of 30 μg/mL in 10 mM sodium acetate, pH 5.0, was immobilized at a density of 2000 RU on flow cell 2; flow cell 1 was left blank to serve as a reference surface. All the surfaces were blocked with a 3 min injection at 10 μL/min of 1 M ethanolamine, pH 8.0. GST tagged CK2α at a concentration of 50 μg/mL in 10 mM HEPES, 150 mM NaCl, 3 mM EDTA, 0.005% (v/v) polysorbate 20, pH = 7.4 was captured at a density of 900 RU on flow cell 2. In order to collect kinetic binding data, analytes in 10 mM HEPES, 150 mM NaCl, 3 mM EDTA, 0.005% (v/v) polysorbate 20, 1% DMSO (v/v), 100 μM ATP, pH = 7.4 were injected over the two flow cells at concentrations of 50, 25, 12.5, 6.25, 3.12, 1.56 μM at a flow rate of 25 μL/min and at a temperature of 25 °C. The complex was allowed to associate and dissociate for 120 s. Duplicate injections (in random order) of each sample and a buffer blank were flowed over the two surfaces. Affinities were obtained after treatments (DMSO calibration, blank and references subtractions) using the software Scrubber 2.0c.
Fig. S7. Binding kinetics of compounds 2-6 by surface plasmon resonance. For each compound, sensorgrams (black line) and global fits (orange line) are depicted with the corresponding chemical structure and the fitted kinetics parameters. Experiments show representative data of two identical repeats.

MDA-MB231 cells = test: Apoptosis by annexin V/propidium iodide staining; assay type: cell-based; settings: MDA-MB231, 40 μM, AV/PI staining
Experimental: Cells plated at equal density (2 × 10^4 cells/well) were treated with the indicated inhibitors in cell culture medium containing 0.5 μg/ml Propidium iodide (Sigma-Aldrich). Images of PI-stained red fluorescent cells were captured every 3 h for the duration of the experiment. For apoptosis detection, 50 μL/mL fluorochrome-conjugated Annexin V (Molecular Probes) was added to the medium together with Propidium iodide and apoptotic cell numbers were calculated.
Fig. S12. […] Cell viability was assessed by Annexin V staining (a) or PI staining (b) using the Essen IncuCyte Zoom live-cell microscopy incubator. Images were captured every hour for the duration of the experiment. Error bars represent the SEM of two biological replicates derived from technical triplicates.

T1 sequence (P68400 whole entry): as above

Kd (CK2α) [µM] | Structure (SMILES) | cell migration / wound closure (MCF10A cells) | other results
– | COc1[nH]c2ccc(F)cc2c1C(=O)OCC1CCN(CCNS(C)(=O)=O)CC1 [Compound 1] | – | inhibition at 50 µM (CK2; at 50 μM, read-out: inhibition of phosphorylation of canonical CK2β-independent peptide substrate): 15%
54 ± 5 | CS(=O)(=O)NCCN1CCC(COC(=O)c2c[nH]c3ccccc23)CC1 [Compound 3, (1-(2-(Methylsulfonamido)ethyl)piperidin-4-yl)methyl 1H-indole-3-carboxylate] | not affected | induction of apoptosis (MDA-MB231 cells): unable to induce apoptosis
41 ± 5 | O=C(OCC1CCN(CCNS(=O)(=O)c2ccccc2)CC1)c1c[nH]c2ccccc12 [Compound 4, (1-(2-(Phenylsulfonamido)ethyl)piperidin-4-yl)methyl 1H-indole-3-carboxylate] | – | –
– | COc1[nH]c2ccc(F)cc2c1C(=O)OCC1CCN(CCNS(=O)(=O)c2ccccc2)CC1.Cl [Compound 6] | completely abrogated | phosphorylation of the CK2β-independent peptide substrate (CK2; increasing concentrations, 40 nM CK2α, 20 nM CK2β): only weakly affected; exposure time after which apoptosis was detected (MDA-MB231 cells): 8 h
